Consider 40 compounds from PubChem BioAssay AID2384 (Southern Research Specialized Biocontainment Screening …, 2010).

Values joined by “and” are separate entries in the source; they are usually repeats but may differ in a detail not shown here. Equal values may be shown once.

The subject of the assay is S. typhi GFP reporter counter-screen, fluorescence, 4 h. Briefly: inhibitors in S. typhi counter-screen strain, dose response, counter-screen for PhoP regulon inhibitor project, fluorescence, 4 h (AID 2384).

In the case of `O=C(CCN1CCOCC1)N/N=C/c1cc(Br)cc(Br)c1O`, the concentration for half-maximal inhibition (IC50) (usually the midpoint of a concentration-inhibition curve) was 27.3 µM.

As for `N=c1c2c(n(Cc3ccc(Cl)cc3)c3c1CCC3)CCC2`, the IC50 is 79.7 µM.

For the compound `CC1=NOC(=O)/C1=C/c1ccc(O)cc1`, the IC50 was 146 µM.

`CN1CCN(c2c(F)cc3c(=O)c(C(=O)O)cn4c3c2SCC4)CC1`: the half-inhibitory concentration (IC50) is 6.28 µM and 8.88 µM.

As to `N/C(=N\OS(=O)(=O)c1ccccc1)c1cccnc1`, the IC50 is 12.4 µM.

Turning to `Cc1cc2nc(C3CCN(CC4COc5ccccc5O4)CC3)[nH]c2cc1C` (stereo not given), the IC50 was 19.5 µM.

As for `CCCCCCCCCCn1c2c(c(=N)c3c1CCC3)CCC2`, the IC50 is 9.77 µM.

With `COc1cc([N+](=O)[O-])cc(/C=N/NC(=O)CSc2ccccn2)c1O`, the IC50 was 93.2 µM.

In the case of `CCCCOc1ccc(NC2=NC3(CCCC3)N=C(N)N2)cc1`, the IC50 is 94.8 µM.

Consider `O=C(N/N=C/C1CC=CCC1)c1cc(Br)ccc1O` (stereo not given), for which the half-inhibitory concentration (IC50) is 123 µM.

Consider `CCCCOc1ccc(C(=O)OC2CC(C)N(C)CC2C)cc1` (stereo not given), for which the IC50 is 26.7 µM.

Turning to `Cc1ccc(CC(=O)Nc2ncc([N+](=O)[O-])s2)cc1`, the IC50 is 78.5 µM.

`O=C(CCN1CCN(c2ccccc2F)CC1)c1ccc(Br)cc1`: the IC50 was 37.2 µM.

Consider `Cc1cc(N=Nc2ccc(C)c(N=Nc3cc(C)c(N)cc3N)c2)c(N)cc1N`, for which the half-inhibitory concentration (IC50) is 57.6 µM.

For the compound `Cc1cc2oc(=O)cc(CN3CCN(C/C=C/c4ccccc4)CC3)c2cc1O`, the IC50 was 92.9 µM.

Take `N=c1n(CCN2CCCCC2)c2ccccc2n1CC(O)COc1ccccc1` (stereo not given): the IC50 is 29.7 µM.

For the compound `O=C(Cn1cc[n+](CC(=O)c2ccc(Cl)cc2Cl)c1)c1ccc(Cl)cc1Cl`, the 50% inhibitory concentration (IC50) is 27.6 µM.

`O=C(NC(CO)C(O)c1ccc([N+](=O)[O-])cc1)C(Cl)Cl` (stereo not given): the half-inhibitory concentration (IC50) is 3.02 µM.

Regarding `Cc1ccc2oc(=O)c(/C=C(\O)c3ccccc3)nc2c1`, the half-inhibitory concentration (IC50) is 64.2 µM.

Regarding `Cc1ccc(C(=O)Sc2cccccc2=O)cc1`, the IC50 is 6.31 µM.

In the case of `OCCN1CCN(Cc2cc(Cl)c3cccnc3c2O)CC1`, the IC50 was 56.6 µM.

Take `O=C(C[n+]1cc(Br)cc2ccccc21)c1ccc(F)cc1`: the IC50 is 75.7 µM.

For the compound `COc1ccccc1CNCCc1ccc(F)cc1`, the IC50 was 33 µM.

Turning to `OC1CNCc2cc3c(cc21)OCCO3` (stereo not given), the IC50 was 61.7 µM.

On to `CCc1cccc2c1Sc1ccccc1CC2N1CCNCC1` (stereo not given), for which the half-maximal inhibitory concentration (IC50) is 39.3 µM.

As to `CSc1cccc(NC(=O)/C=C/c2ccccc2)c1`, the IC50 is 72 µM.

As to `NC1=NC[C@H](CC2CCCCC2)N1CCc1cc(C(F)(F)F)cc(C(F)(F)F)c1`, the IC50 is 35.2 µM.

Turning to `O=C(N/N=C/c1ccc(O)c(O)c1)C1c2ccccc2Oc2ccccc21`, the IC50 was 64.8 µM.

For `CC[C@H]1OC(=O)[C@H](C)[C@@H](O[C@H]2C[C@@](C)(OC)[C@@H](O)[C@H](C)O2)[C@H](C)[C@@H](O[C@@H]2O[C@H](C)C[C@H](N(C)C)[C@H]2O)[C@](C)(O)C[C@@H](C)CN(C)[C@H](C)[C@@H](O)[C@]1(C)O`, the IC50 was 1.28 µM.

On to `Oc1c(Br)cc(Br)cc1C=NCc1ccccc1`, for which the 50% inhibitory concentration (IC50) was 40.4 µM.

Regarding `Nc1ncncc1-c1ccc(Cl)cc1`, the IC50 is 65.5 µM.

Regarding `C=C1c2cccc(O)c2C(O)=C2C(=O)[C@]3(O)C(O)=C(C(N)=O)C(=O)[C@@H](N(C)C)[C@@H]3[C@@H](O)[C@H]12`, the IC50 is under 0.23 µM.

As to `CN1CCN(c2cc3c(cc2F)c(=O)c(C(=O)O)cn3CCF)CC1`, the concentration for half-maximal inhibition (IC50) was 1.06 µM.

As for `NCCCCCc1nnc(SCc2ccc(Cl)cc2Cl)o1`, the half-maximal inhibitory concentration (IC50) is 98.3 µM.

On to `CNCCC=C1c2ccccc2CCc2ccccc21`, for which the half-maximal inhibitory concentration (IC50) was 117 µM.

In the case of `CCOc1cc(CNCCCN2CCOCC2)cc(Br)c1OCC(=O)Nc1cccc(C(F)(F)F)c1`, the IC50 was 47.1 µM.

As for `O=C(CSC1=NC(=O)C(c2ccccc2)C(=O)N1)Nc1cccc(Cl)c1` (stereo not given), the IC50 is 80.2 µM.

With `Cc1[nH]c2ccc(C(=O)Nc3ccncc3)cc2c1C`, the half-inhibitory concentration (IC50) is 90.8 µM.

Turning to `Cc1ccc(S(=O)(=O)NNc2ccccc2)cc1`, the half-maximal inhibitory concentration (IC50) was 89.5 µM.

On to `Cc1ccc(C)c(NC(=O)CCC(=O)N/N=C/c2cc([N+](=O)[O-])ccc2O)c1`, for which the IC50 was 47.1 µM.
